This is an account of results in US9023986B2, “Glucose-dependent insulinotropic peptide analogs” (Hoffmann-La Roche Inc., priority 2010, dated 2015).

The target of the experiment is T1, human GIPR (Homo sapiens, UniProt P48546).
T1 construct: host or cells: CHO-K1
T1 sequence (P48546 22-466): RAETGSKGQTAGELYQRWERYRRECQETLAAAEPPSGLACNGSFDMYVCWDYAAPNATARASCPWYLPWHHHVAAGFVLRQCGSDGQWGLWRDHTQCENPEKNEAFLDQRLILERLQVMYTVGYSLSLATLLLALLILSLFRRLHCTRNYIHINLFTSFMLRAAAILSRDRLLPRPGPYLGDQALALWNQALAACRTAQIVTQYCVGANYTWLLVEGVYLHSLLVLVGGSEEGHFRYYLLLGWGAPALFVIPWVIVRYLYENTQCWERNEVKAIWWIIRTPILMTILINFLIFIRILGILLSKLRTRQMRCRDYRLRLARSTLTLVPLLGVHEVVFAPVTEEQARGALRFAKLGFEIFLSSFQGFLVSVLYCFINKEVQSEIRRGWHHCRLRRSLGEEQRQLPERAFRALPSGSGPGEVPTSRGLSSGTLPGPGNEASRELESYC
The experiment in a line: cAMP production in CHO-K1 cells expressing human GIPR (LANCE cAMP assay). The experiment is classed as cell-based. The note with it: for Emax: CHO-K1, read-out: % activation of cAMP (maximal stimulation). The procedure:
CHO—K1 cells expressing human GIPR were obtained from DiscoverX Corporation (Fremont, Calif.). The cells were cultured in Ham's F-12 nutrient media supplemented with 10% foetal bovine serum, 800 μg/ml geneticin, 300 μg/ml hydromycin, 2 mM L-glutamine, and Penicillin-streptomycin (100 units, 100 μg) at 37° C. in a 5% CO2 incubator. The cells were harvested at 90% confluence.
The cells were suspended in Ham's F-12 nutrient media to a concentration of 200,000 cells/ml. The cells were then plated in a 384 well plate at with […] of the suspension added per well. The cells were incubated overnight at 37° C. in a 5% CO2 incubator.
The activity of the compounds was determined by stimulating the CHO—K1 cells with the test compound, and measuring the levels of cAMP produced. The activity of the compounds was compared to the activity of native GIP, as GIP stimulates cAMP production. 6 μl of the test compound in stimulation buffer (990 ml Hank's Balanced Salt solution (HBSS) (1×) (Invitrogen Corp #14025-092), 10 ml Hepes buffer solution (1 mol·L) (Invitrogen Corp 15630-080), 1 g BSA (final 0.1%), and 1 ml IBMX 250 mM stock prepared fresh in DMSO (Sigma-Aldrich 15879)) were added to cells, followed by 6 μl of Alexa Fluor® 647-anti cAMP antibody (Perkin Elmer) in stimulation buffer. […] The well plate was centrifuged for 3 min at 300 rpm, and incubated at room temperature for 45 minutes. 12 μl of detection mixture (biotin cAMP and EUW8044 labeled streptavidin (Eu-SA) in cAMP Detection Buffer (Perkin Elmer)) was added and incubated for 60 min at room temperature.
The levels of cAMP produced were measured according to the detailed protocol outlined in the Perkin Elmer LANCE cAMP Assay Perkin Elmer Lance cAMP Kit manual. The activity of the compounds was compared to the activity of native GIP.
The plates are read on a TRF detection instrument, EnVision® (Perkin Elmer) (excitation at 340 nm and emission at 665 nm). The values of the cAMP signal are obtained from the standard cAMP curve and used to determine the amount of maximal stimulation, and EC50 for stimulating the cAMP signal.
(In general: Cyclic AMP is a second messenger, typically raised through Gs and lowered through Gi signalling.)

Turning to `CC[C@H](C)[C@H](NC(=O)[C@H](CO)NC(=O)[C@H](Cc1ccc(O)cc1)NC(=O)[C@H](CC(=O)O)NC(=O)[C@H](CO)NC(=O)[C@@H](NC(=O)[C@H](Cc1ccccc1)NC(=O)[C@@H](NC(=O)CNC(=O)[C@H](CCC(=O)O)NC(=O)[C@H](C)NC(=O)[C@@H](Cc1ccc(Cl)cc1)NC(C)=O)[C@@H](C)O)[C@@H](C)CC)C(=O)N[C@@H](C)C(=O)N[C@@H](CCSC)C(=O)N[C@@H](CC(=O)O)C(=O)N[C@@H](CCCCN)C(=O)N[C@H](C(=O)N[C@@H](Cc1c[nH]cn1)C(=O)N[C@@H](CCC(N)=O)C(=O)N[C@@H](CCC(N)=O)C(=O)N[C@@H](CC(=O)O)C(=O)N[C@@H](Cc1ccccc1)C(=O)N[C@H](C(=O)N[C@@H](CC(N)=O)C(=O)N[C@@H](Cc1c[nH]c2ccccc12)C(=O)N[C@@H](CC(C)C)C(=O)N[C@@H](CC(C)C)C(=O)N[C@@H](C)C(=O)N[C@@H](CCC(N)=O)C(=O)N[C@@H](CCCCN)C(N)=O)C(C)C)[C@@H](C)CC` [Example 14], a half-maximal response (EC50) required 0.025 nM and the Emax was 106%.

As for `CC[C@H](C)[C@H](NC(=O)[C@H](CO)NC(=O)[C@H](Cc1ccc(O)cc1)NC(=O)[C@H](CC(=O)O)NC(=O)[C@H](CO)NC(=O)[C@@H](NC(=O)[C@H](Cc1ccccc1)NC(=O)[C@@H](NC(=O)CNC(=O)[C@H](CCC(=O)O)NC(=O)[C@H](C)NC(=O)[C@@H](Cc1ccccc1F)NC(C)=O)[C@@H](C)O)[C@@H](C)CC)C(=O)N[C@@H](C)C(=O)N[C@@H](CCSC)C(=O)N[C@@H](CC(=O)O)C(=O)N[C@@H](CCCCN)C(=O)N[C@H](C(=O)N[C@@H](Cc1c[nH]cn1)C(=O)N[C@@H](CCC(N)=O)C(=O)N[C@@H](CCC(N)=O)C(=O)N[C@@H](CC(=O)O)C(=O)N[C@@H](Cc1ccccc1)C(=O)N[C@H](C(=O)N[C@@H](CC(N)=O)C(=O)N[C@@H](Cc1c[nH]c2ccccc12)C(=O)N[C@@H](CC(C)C)C(=O)N[C@@H](CC(C)C)C(=O)N[C@@H](C)C(=O)N[C@@H](CCC(N)=O)C(=O)N[C@@H](CCCCN)C(N)=O)C(C)C)[C@@H](C)CC` [Example 15], the EC50 (commonly the concentration that produces a half-maximal response) amounted to 0.0075 nM and the Emax stood at 99.8%.

With `CC[C@H](C)[C@H](NC(=O)[C@H](CO)NC(=O)[C@H](Cc1ccc(O)cc1)NC(=O)[C@H](CC(=O)O)NC(=O)[C@H](CO)NC(=O)[C@@H](NC(=O)[C@H](Cc1ccccc1)NC(=O)[C@@H](NC(=O)CNC(=O)[C@H](CCC(=O)O)NC(=O)[C@H](C)NC(=O)[C@@H](Cc1cccc(F)c1)NC(C)=O)[C@@H](C)O)[C@@H](C)CC)C(=O)N[C@@H](C)C(=O)N[C@@H](CCSC)C(=O)N[C@@H](CC(=O)O)C(=O)N[C@@H](CCCCN)C(=O)N[C@H](C(=O)N[C@@H](Cc1c[nH]cn1)C(=O)N[C@@H](CCC(N)=O)C(=O)N[C@@H](CCC(N)=O)C(=O)N[C@@H](CC(=O)O)C(=O)N[C@@H](Cc1ccccc1)C(=O)N[C@H](C(=O)N[C@@H](CC(N)=O)C(=O)N[C@@H](Cc1c[nH]c2ccccc12)C(=O)N[C@@H](CC(C)C)C(=O)N[C@@H](CC(C)C)C(=O)N[C@@H](C)C(=O)N[C@@H](CCC(N)=O)C(=O)N[C@@H](CCCCN)C(N)=O)C(C)C)[C@@H](C)CC` [Example 16], the EC50 turned out to be 0.058 nM and the Emax stood at 98%.

On to `CC[C@H](C)[C@H](NC(=O)[C@H](CO)NC(=O)[C@H](Cc1ccc(O)cc1)NC(=O)[C@H](CC(=O)O)NC(=O)[C@H](CO)NC(=O)[C@@H](NC(=O)[C@H](Cc1ccccc1)NC(=O)[C@@H](NC(=O)CNC(=O)[C@H](CCC(=O)O)NC(=O)[C@H](C)NC(=O)[C@@H](Cc1cc(F)cc(F)c1)NC(C)=O)[C@@H](C)O)[C@@H](C)CC)C(=O)N[C@@H](C)C(=O)N[C@@H](CCSC)C(=O)N[C@@H](CC(=O)O)C(=O)N[C@@H](CCCCN)C(=O)N[C@H](C(=O)N[C@@H](Cc1c[nH]cn1)C(=O)N[C@@H](CCC(N)=O)C(=O)N[C@@H](CCC(N)=O)C(=O)N[C@@H](CC(=O)O)C(=O)N[C@@H](Cc1ccccc1)C(=O)N[C@H](C(=O)N[C@@H](CC(N)=O)C(=O)N[C@@H](Cc1c[nH]c2ccccc12)C(=O)N[C@@H](CC(C)C)C(=O)N[C@@H](CC(C)C)C(=O)N[C@@H](C)C(=O)N[C@@H](CCC(N)=O)C(=O)N[C@@H](CCCCN)C(N)=O)C(C)C)[C@@H](C)CC` [Example 17], for which the concentration for a half-maximal effect (EC50) worked out at 0.003 nM and the Emax was 99.6%.

Take `CC[C@H](C)[C@H](NC(=O)[C@H](CO)NC(=O)[C@H](Cc1ccc(O)cc1)NC(=O)[C@H](CC(=O)O)NC(=O)[C@H](CO)NC(=O)[C@@H](NC(=O)[C@H](Cc1ccccc1)NC(=O)[C@@H](NC(=O)CNC(=O)[C@H](CCC(=O)O)NC(=O)[C@H](C)NC(=O)[C@@H](Cc1cc(F)c(F)c(F)c1)NC(C)=O)[C@@H](C)O)[C@@H](C)CC)C(=O)N[C@@H](C)C(=O)N[C@@H](CCSC)C(=O)N[C@@H](CC(=O)O)C(=O)N[C@@H](CCCCN)C(=O)N[C@H](C(=O)N[C@@H](Cc1c[nH]cn1)C(=O)N[C@@H](CCC(N)=O)C(=O)N[C@@H](CCC(N)=O)C(=O)N[C@@H](CC(=O)O)C(=O)N[C@@H](Cc1ccccc1)C(=O)N[C@H](C(=O)N[C@@H](CC(N)=O)C(=O)N[C@@H](Cc1c[nH]c2ccccc12)C(=O)N[C@@H](CC(C)C)C(=O)N[C@@H](CC(C)C)C(=O)N[C@@H](C)C(=O)N[C@@H](CCC(N)=O)C(=O)N[C@@H](CCCCN)C(N)=O)C(C)C)[C@@H](C)CC` [Example 18]: the EC50 came to 0.104 nM and the Emax is 100%.

Consider “Ac-(D)Tyr-Ala-Glu-Gly-Thr-Phe-Ile-Ser-Asp-Tyr-Ser-Ile-Ala-Met-Asp-Lys-Ile-His-Gln-Gln-Asp-Phe-Val-Asn-Trp-Leu-Leu-Ala-Gln-Lys-NH2 [Example 6]”, for which the “% activation of cAMP (maximal stimulation)” value (CHO-K1 cells expressing human GIPR, compared to native GIP) was determined as 102%.
